Experimental data taken from US20170190671A1, “BIS(ARYL)CATECHOL DERIVATIVES AS HERBICIDES” (E I DU PONT DE NEMOURS AND COMPANY, priority 2014, published 2017).

Key:
Type in all cases: in vivo
kochia (Kochia scoparia) [1] = assay: Test A postemergence; details: 0 to 100 scale
From the text: (§1) Seeds of plant species selected from barnyardgrass (Echinochloa crus-galli), kochia (Kochia scoparia), ragweed (common ragweed, Ambrosia elatior), Italian ryegrass (Lolium multiflorum), large (Lg) crabgrass (Digitaria sanguinalis), giant foxtail (Setaria faberii), morningglory (Ipomoea spp.), pigweed (Amaranthus retroflexus), velvetleaf (Abutilon theophrasti), wheat (Triticum aestivum), and corn (Zea mays) were planted into a blend of loam soil and sand and treated preemergence with a directed soil spray using test chemicals formulated in a non-phytotoxic solvent mixture which included a surfactant.
(§2) At the same time, plants selected from these crop and weed species and also blackgrass (Alopecurus myosuroides), and galium (catchweed bedstraw, Galium aparine) were planted in pots containing the same blend of loam soil and sand and treated with postemergence applications of test chemicals formulated in the same manner. Plants ranged in height from 2 to 10 cm and were in the one- to two-leaf stage for the postemergence treatment. Treated plants and untreated controls were maintained in a greenhouse for approximately 10 days, after which time all treated plants were compared to untreated controls and visually evaluated for injury. Plant response ratings, summarized in Table A, are based on a 0 to 100 scale where 0 is no effect and 100 is complete control. A dash (-) response means no test result.

[2] = test system: ragweed (common ragweed, Ambrosia elatior); assay: Test A postemergence; details: 0 to 100 scale
From the text: as §1, §2

[3] = test system: wheat (Triticum aestivum); assay: Test A postemergence; details: 0 to 100 scale
From the text: as §1, §2

[4] = test system: galium (catchweed bedstraw, Galium aparine); assay: Test A postemergence; details: 0 to 100 scale
From the text: as §1, §2

[5] = test system: Italian ryegrass (Lolium multiflorum); assay: Test A postemergence; details: 0 to 100 scale
From the text: as §1, §2

[6] = test system: giant foxtail (Setaria faberii); assay: Test A postemergence; details: 0 to 100 scale
From the text: as §1, §2

[7] = test system: barnyardgrass (Echinochloa crus-galli); assay: Test A postemergence; details: 0 to 100 scale
From the text: as §1, §2

[8] = test system: pigweed (Amaranthus retroflexus); assay: Test A postemergence; details: 0 to 100 scale
From the text: as §1, §2

[9] = test system: blackgrass (Alopecurus myosuroides); assay: Test A postemergence; details: 0 to 100 scale
From the text: as §1, §2

corn (Zea mays) = assay: Test A postemergence; details: 0 to 100 scale
From the text: as §1, §2

kochia (Kochia scoparia) [10] = assay: Test A preemergence; details: for Plant response rating, Kochia: 0 to 100 scale
From the text: as §1, §2

[11] = test system: ragweed (common ragweed, Ambrosia elatior); assay: Test A preemergence; details: for Plant response rating, Ragweed: 0 to 100 scale
From the text: as §1, §2

[12] = test system: Italian ryegrass (Lolium multiflorum); assay: Test A preemergence; details: for Plant response rating, Ryegrass, Italian: 0 to 100 scale
From the text: as §1, §2

[13] = test system: giant foxtail (Setaria faberii); assay: Test A preemergence; details: for Plant response rating, Foxtail, Giant: 0 to 100 scale
From the text: as §1, §2

[14] = test system: barnyardgrass (Echinochloa crus-galli); assay: Test A preemergence; details: for Plant response rating, Barnyardgrass: 0 to 100 scale
From the text: as §1, §2

[15] = test system: pigweed (Amaranthus retroflexus); assay: Test A preemergence; details: for Plant response rating, Pigweed: 0 to 100 scale
From the text: as §1, §2

rice (Oryza sativa) = assay: Test B flooded paddy; details: 250 g ai/ha, Flood, 13 to 15 days, scale 0 (no effect) to 100 (complete control)
From the text: (§3) At time of treatment, test pots were flooded to 3 cm above the soil surface, treated by application of test compounds directly to the paddy water, and then maintained at that water depth for the duration of the test. Treated plants and controls were maintained in a greenhouse for 13 to 15 days, after which time all species were compared to controls and visually evaluated. […] A dash (-) response means no test result.

[16] = test system: sedge, umbrella (small-flower umbrella sedge, Cyperus difformis); assay: Test B flooded paddy; details: 250 g ai/ha, Flood, 13 to 15 days, scale 0 (no effect) to 100 (complete control)
From the text: as §3

[17] = test system: ducksalad (Heteranthera limosa); assay: Test B flooded paddy; details: 250 g ai/ha, Flood, 13 to 15 days, scale 0 (no effect) to 100 (complete control)
From the text: as §3

[18] = test system: barnyardgrass (Echinochloa crus-galli); assay: Test B flooded paddy; details: 250 g ai/ha, Flood, 13 to 15 days, scale 0 (no effect) to 100 (complete control)
From the text: as §3

[19] = 31 g ai/ha, 0 to 100 scale (0 no effect, 100 complete control)

| Compound | Plant response rating, Kochia (kochia (Kochia scoparia) [1]; 125 g ai/ha) | Plant response rating, Ragweed ([2]; 125 g ai/ha) | Plant response rating, Wheat ([3]; 125 g ai/ha) | Plant response rating, Galium ([4]; 125 g ai/ha) | Plant response rating, Ryegrass, Italian ([5]; 125 g ai/ha) | Plant response rating, Foxtail, Giant ([6]; 125 g ai/ha) | Plant response rating, Barnyardgrass ([7]; 125 g ai/ha) | Plant response rating, Pigweed ([8]; 125 g ai/ha) | Plant response rating, Blackgrass ([9]; 125 g ai/ha) | Plant response rating, Corn (corn (Zea mays); 125 g ai/ha) | Plant response rating, Kochia (kochia (Kochia scoparia) [10]; 125 g ai/ha) | Plant response rating, Ragweed ([11]; 125 g ai/ha) | Plant response rating, Ryegrass, Italian ([12]; 125 g ai/ha) | Plant response rating, Foxtail, Giant ([13]; 125 g ai/ha) | Plant response rating, Barnyardgrass ([14]; 125 g ai/ha) | Plant response rating, Pigweed ([15]; 125 g ai/ha) | Plant response rating, Rice (rice (Oryza sativa)) | Plant response rating, Sedge, Umbrella [16] | Plant response rating, Ducksalad [17] | Plant response rating, Barnyardgrass [18] | also measured |
| --- | --- | --- | --- | --- | --- | --- | --- | --- | --- | --- | --- | --- | --- | --- | --- | --- | --- | --- | --- | --- | --- |
| N#Cc1cccc(Oc2ncc(Cl)cn2)c1Oc1ccc(C(F)(F)F)nc1 [Compound 13] | 0 | 0 | 0 | 0 | 0 | 0 | 0 | 10 | 0 | 0 | 0 | 0 | 0 | 0 | 0 | 0 | 0 | 0 | 0 | 0 | Plant response rating, Kochia (kochia (Kochia scoparia) [1]; 500 g ai/ha): 0; Plant response rating, Ragweed ([2]; 500 g ai/ha): 0; Plant response rating, Wheat ([3]; 500 g ai/ha): 0; Plant response rating, Galium ([4]; 500 g ai/ha): 0; Plant response rating, Ryegrass, Italian ([5]; 500 g ai/ha): 0; Plant response rating, Foxtail, Giant ([6]; 500 g ai/ha): 0; Plant response rating, Barnyardgrass ([7]; 500 g ai/ha): 0; Plant response rating, Pigweed ([8]; 500 g ai/ha): 40; Plant response rating, Blackgrass ([9]; 500 g ai/ha): 0; Plant response rating, Corn (corn (Zea mays); 500 g ai/ha): 0; Plant response rating, Kochia (kochia (Kochia scoparia) [10]; 500 g ai/ha): 0; Plant response rating, Ragweed ([11]; 500 g ai/ha): 0; Plant response rating, Ryegrass, Italian ([12]; 500 g ai/ha): 0; Plant response rating, Foxtail, Giant ([13]; 500 g ai/ha): 0; Plant response rating, Barnyardgrass ([14]; 500 g ai/ha): 0; Plant response rating, Pigweed ([15]; 500 g ai/ha): 0 |
| N#Cc1cccc(Oc2ncc(Cl)cn2)c1Oc1ccc(C(F)(F)F)cn1 [Compound 14] | 0 | 0 | 0 | 50 | 0 | 20 | 0 | 50 | 30 | 0 | 0 | 0 | 0 | 0 | 0 | 80 | 15 | 0 | 30 | 0 | Plant response rating, Kochia (kochia (Kochia scoparia) [1]; 31 g ai/ha): 0; Plant response rating, Ragweed ([2]; 31 g ai/ha): 0; Plant response rating, Wheat ([3]; 31 g ai/ha): 0; Plant response rating, Galium ([4]; 31 g ai/ha): 40; Plant response rating, Ryegrass, Italian ([5]; 31 g ai/ha): 0; Plant response rating, Foxtail, Giant ([6]; 31 g ai/ha): 0; Plant response rating, Barnyardgrass ([7]; 31 g ai/ha): 0; Plant response rating, Pigweed ([8]; 31 g ai/ha): 0; Plant response rating, Blackgrass ([9]; 31 g ai/ha): 0; Plant response rating, Corn (corn (Zea mays); 31 g ai/ha): 0; Kochia plant response rating (kochia (Kochia scoparia) [10]; [19]): 0; Ragweed plant response rating [11, 19]: 0; Ryegrass, Italian plant response rating [12, 19]: 0; Foxtail, Giant plant response rating [13, 19]: 0; Barnyardgrass plant response rating [14, 19]: 0; Pigweed plant response rating [15, 19]: 40 |
